Where “and” joins values, the source holds several entries; their conditions need not be identical. Equal entries are not always repeated. Non-standard residues stand in square brackets, D forms with d. *: point of attachment. Oic = O=C(O)[C@@H]1C[C@@H]2CCCC[C@@H]2N1; ACC = NC(=O)Cc1cc(=O)oc2cc(N*)ccc12
How the values were obtained:
GrB [1] = biological target: T1, GrB (Homo sapiens, UniProt P10144); assay: GrA substrate selectivity testing on GrB; type: biochemical; details: substrate 200 μM (Fig 3A) or 67 μM, 18 nM GrB
T1 construct: made in house; host or cells: Pichia pastoris
T1 sequence (P10144 21-247): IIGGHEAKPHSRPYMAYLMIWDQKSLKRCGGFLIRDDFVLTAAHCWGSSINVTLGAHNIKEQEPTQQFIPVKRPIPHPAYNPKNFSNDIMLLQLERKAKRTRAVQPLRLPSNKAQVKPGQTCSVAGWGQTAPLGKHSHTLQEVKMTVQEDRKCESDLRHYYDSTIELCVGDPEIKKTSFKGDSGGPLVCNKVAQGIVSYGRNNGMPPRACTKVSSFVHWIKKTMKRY
Source text: Since GrA and GrK are the most structurally similar Grs, they may recognize and hydrolyze the same natural and synthetic substrates. Therefore, we tested whether our new GrA substrates are also recognized by GrK or GrB (Figure 3A). For this experiment, we screened substrates SK8 to SK28 and a GrKref substrate (Ac-Tyr-Arg-Phe-Lys-ACC) or GrBref substrate (Ac-Ile-Glu-Pro-Asp-ACC) at the same concentration using a plate reader, and we monitored the increase in fluorescence over time. The linear portions of the diagram were analyzed, and as we expected, the majority of the substrates were well recognized by GrK, even better than their recognition by GrA. […] Based on that, we concluded that Tic-Gly-Oic-Arg is a leading sequence for a specific potent inhibitor and ABP for GrA.
Figure 3 (A) GrA substrate selectivity testing on GrK and GrB. Substrates SK8–SK28 and the reference GrK and GrB substrates were placed in a 96-well plate at a concentration of 200 μM and treated with GrK or GrB. […] Data present the average of 2 replicates as adjusted RFU/s.
Figure S2. Selectivity of SK15 substrate toward selected serine proteases (GrA, GrB, GrM, GrK,
PR3, and hNE). The reference substrates were as follows: Ac-Ile-Gly-Pro-Arg-ACC for GrA, Ac -Tyr-
Arg-Phe-Lys-ACC for GrK, Ac-Ile-Glu-Pro-Asp-ACC for GrB, Ac-Lys-Val-Pro-Leu-ACC for GrM,
Ac-Glu(O-Bzl)-Lys(Ac)-Hyp(Bzl)-Nva-ACC for PR3 and Ac-Arg(NO)2-Glu(Bzl)-Oic-Abu-ACC for hNE.
Substrates were placed in a 96-well plate at a concentration of 67 µM and treated with optimal
and emission wavelengths. Data present the average of 2 replicates as adjusted RFU/s.
Figure S3. Detection of active GrA in NK92 cells.
(also on this page, place not known: S K15 hNE) . Ac-Tyr- -Arg(NO)2-Glu(Bzl)-Oic-Abu-ACC ( 89 G rA cell s. reference reference SK15 reference SK15 reference SK15 reference SK15 reference SK15 0 50 100 substrate turnover, %RFU/s PR3GrMGrBGrK hNEGrA SK15 selectivity) […]

GrA [2] = biological target: T2, GrA (Homo sapiens, UniProt P12544); assay: Steady-state Michaelis–Menten kinetics of fluorogenic ACC substrates with GrA; type: biochemical; details: GrA 93 nM, 37 °C, ACC fluorescence 355/460 nm
T2 construct: made in house; host or cells: Pichia pastoris
T2 sequence (P12544 29-262): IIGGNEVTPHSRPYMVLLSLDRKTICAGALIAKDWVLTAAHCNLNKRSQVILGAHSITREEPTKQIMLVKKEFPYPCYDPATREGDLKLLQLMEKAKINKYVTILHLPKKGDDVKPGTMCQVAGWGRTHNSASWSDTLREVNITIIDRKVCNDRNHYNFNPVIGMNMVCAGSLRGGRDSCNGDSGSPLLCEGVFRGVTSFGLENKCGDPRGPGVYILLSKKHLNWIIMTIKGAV
Source text: All chemical and biological reagents were purchased from commercial suppliers and used without further purification. The following reagents for solid phase peptide synthesis, Rink Amide RA resin (particle size 200–300 mesh, loading 0.74 mmol/g), 2-chlorotrityl chloride resin, Fmoc-protected amino acids, biotin, 1-[bis(dimethylamino)methylene]-1H-1,2,3-triazolo[4,5-b] pyridinium 3-oxid hexafluorophosphate (HATU), piperidine, diisopropylcarbodiimide (DICI), and trifluoroacetic acid (TFA), were purchased from Iris Biotech GmbH (Marktredwitz, Germany); anhydrous N-hydroxybenzotriazole (HOBt, purity >98%) was purchased from Creosauls; 2,4,6-collidine (2,4,6-trimethylpyridine), HPLC pure acetonitrile, and triisopropylsilane (TIPS) were purchased from Sigma-Aldrich (Poznan, Poland); and N,N-diisopropylethylamie (DIPEA) was purchased from VWR International (Gdansk, Poland). Solvents such as N,N-dimethylformamide (DMF), dichloromethane (DCM), methanol (MeOH), diethyl ether (Et2O), and acetic acid (AcOH) were purchased from Avantor (Gliwice, Poland). Cy5 was purchased from Lumiprobe GmbH (Hannover, Germany). Human neutrophil elastase was purchased from BioCentrum (Kraków, Poland) and proteinase 3 from Athens Research Technology (Athens, USA). Anti-GrA antibody (rabbit, monoclonal, ab209205) was obtained from Abcam (Cambridge, Great Britain). All cell lines were purchased from DSMZ (Braunschweig, Germany) or ATCC (Manassas, USA). All kinetic assays were performed using a Spectra Max Gemini XPS spectrofluorometer (Molecular Devices) on 96-well Corning plates. The parameters of the process were as follows: 37 °C; excitation/emission wavelength, 355/460 nm; cutoff, 455 nm; varying concentrations of substrates and enzyme. All measurements were performed in duplicate, and the data represent the average of these repetitions

GrA [3] = biological target: T2, GrA; assay: Second-order inhibition rate constant kobs/I toward GrA, pseudo-first-order conditions; type: biochemical; details: pseudo-first-order; substrate SK15 10 μM; inhibitor 714–333 nM; GrA 350 nM added; pH 7.5, 37 °C; average of at least three experiments with SD
Protocol: We calculated the apparent second-order rate constants for inhibition (kobs(app)/I) of GrA-mediated SK15I under pseudo first-order conditions by serially diluting the new inhibitor in the range of 714–333 nM with a constant optimal substrate (SK15) concentration of 10 μM (Figure 3B).
The second-order inhibition rate constant (kobs/I expressed in M^–1 s^–1) toward GrA was measured under pseudo-first-order kinetic conditions. Ten microliters of substrate (SK15) was mixed with varying inhibitor or probe concentrations and incubated at 37 °C for 15 min. […] Experiments are presented as the average of at least three experiments with standard deviation.

GrA [4] = assay: Residual activity assay, GrA preinhibited with SK15I or SK15.5; type: biochemical, human; details: substrate SK15; preincubation 30 min, 37 °C
Protocol: (§1) We wondered whether the selectivity of our SK15-based molecules for GrA would be maintained by substrate structure modifications, such as replacing ACC with a diphenyl phosphonate warhead and changing the N-terminus from acetyl to the cyanine derivative Cy5.
(§2) As a control, enzymes without inhibitor and probe were tested.

GrK = biological target: T3, GrK (Homo sapiens, UniProt P49863); assay: Residual activity assay, GrK; type: biochemical; details: 488 nM GrK preincubated with 10 μM compound 30 min 37 °C; 200 μM GrKref
T3 construct: made in house; host or cells: Pichia pastoris
T3 sequence (P49863 27-264): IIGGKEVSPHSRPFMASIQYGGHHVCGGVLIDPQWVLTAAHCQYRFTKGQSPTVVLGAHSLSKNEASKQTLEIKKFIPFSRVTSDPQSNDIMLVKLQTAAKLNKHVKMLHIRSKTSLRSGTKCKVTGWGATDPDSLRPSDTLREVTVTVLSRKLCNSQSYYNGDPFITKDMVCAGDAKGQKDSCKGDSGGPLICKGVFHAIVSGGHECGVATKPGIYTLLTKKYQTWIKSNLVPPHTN
Protocol: as §1, §2

GrB [5] = biological target: T1, GrB; assay: Residual activity assay, GrB; type: biochemical; details: 18 nM GrB preincubated with 10 μM compound 30 min 37 °C; 200 μM GrBref
Protocol: as §1, §2

GrM = assay: Residual activity assay, GrM; type: biochemical, human; details: 74 nM GrM preincubated with 10 μM compound 30 min 37 °C; substrate Ac-Lys-Val-Pro-Leu-ACC
Protocol: as §1, §2

PR3 = assay: Residual activity assay, PR3; type: biochemical; details: 3.4 nM PR3 preincubated with 10 μM compound 30 min 37 °C; substrate Ac-Glu(O-Bzl)-Lys(Ac)-Hyp(Bzl)-Nva-ACC
Protocol: as §1, §2

hNE = assay: Residual activity assay, hNE; type: biochemical, human; details: 3.3 nM hNE preincubated with 10 μM compound 30 min 37 °C; substrate Ac-Arg(NO)2-Glu(Bzl)-Oic-Abu-ACC
Protocol: as §1, §2

GrA [6] = biological target: T4, GrA (Homo sapiens, UniProt P12544); assay: In-gel detection of recombinant GrA with SK15.5 (SDS-PAGE); type: binding; details: GrA forms 250 nM, probe 500 nM, 1 h, Western blot
T4 construct: made in house; host or cells: Pichia pastoris
T4 sequence (P12544 27-262): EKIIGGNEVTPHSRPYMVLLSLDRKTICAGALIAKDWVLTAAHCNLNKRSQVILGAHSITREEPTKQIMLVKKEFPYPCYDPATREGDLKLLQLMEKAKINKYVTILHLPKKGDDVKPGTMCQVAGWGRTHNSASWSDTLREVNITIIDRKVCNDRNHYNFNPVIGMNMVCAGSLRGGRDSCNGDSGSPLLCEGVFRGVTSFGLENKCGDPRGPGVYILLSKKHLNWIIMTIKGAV
Protocol: (§3) Next, we tested the utility of our fluorescent probe for the in-gel detection of active GrA in test samples. […] We then ran a simple SDS-PAGE assay to detect labeled GrA (Figure 4A). […] In our hands, the probe bound to the enzyme, as indicated by the fluorescent 35 kDa species, after the minimal incubation time (5 min). […] The optimal concentration was 500 nM (strong signal) (Figure 4B).
(§4) (A) Incubation time of SK15.5 with enzyme optimization. […] (D) GrA in-gel detection in NK92 cell lysates. […] The results are representative of at least 2 replicates.
(§5) In contrast to the closely related GrB, GrH, GrM, and GrK, GrA is a homodimer formed by stable disulfide-linked subunits.[26] Since the subunits are oriented in opposite directions, the surrounding area may form an exosite.[26]
(§6) In the incubation time optimization assay, the enzyme and probe concentrations were constant (250 nM), and the incubation time ranged from 0 to 120 min. […] Enzyme was incubated with probe in a volume of 80 μL, followed by the reduction with 40 μL of 3 × SDS/DTT for 5 min at 95 °C. Samples were centrifuged (3 min, 4500g), and 40 μL of each sample was run on 4–12% Bis-Tris 10-well gels (Invitrogen). The first well was loaded with 2 μL of the protein marker PageRuler Plus Prestained Protein Ladder (Thermo Scientific). Electrophoresis was conducted at 165 V for 37 min at room temperature. […] Total sample volume was 80 μL, to which 40 μL of 3× SDS/DTT was added and boiled for 5 min at 95 °C. Samples were centrifuged (3 min, 4500g), and 40 μL of each sample was run on 4–12% Bis-Tris 10-well gels (Invitrogen). Each form of the enzyme without SK15.5 and probe itself were run as controls. The first well was loaded with 2 μL of protein marker PageRuler Plus Prestained Protein Ladder (Thermo Scientific). Electrophoresis and membrane transfer were conducted in the same manner as above.

GrA [7] = biological target: T2, GrA; assay: as above; type: binding; details: GrA 250 nM, 37 °C
Protocol: as §3, §4, §5, §6

GrA in NK92 cell lysates = details: lysates 1 × 10^7 cells/mL, probe 250 nM to 2 μM, 1 h, 37 °C
human GrA = assay: P1 library screening (individual substrates Ac-Ile-Ser-Pro-P1-ACC) with GrA; details: relative to best P1 residue (100%); substrates at the same concentration; fluorescence 355/460 nm

“Ac-IG[Oic]R-{ACC} (SMILES CC[C@H](C)[C@H](NC(C)=O)C(=O)NCC(=O)N1[C@H](C(=O)N[C@@H](CCCNC(=N)N)C(=O)Nc2ccc3c(CC(N)=O)cc(=O)oc3c2)C[C@@H]2CCCC[C@@H]21) [SK17]” was tested, and the “hydrolysis by GrB (in words)” value (GrB [1]) was “significantly hydrolyzed”.
For “Ac-Ile-Gly-Pro-Arg-ACC (Ac-IGPR-{ACC}; SMILES CC[C@H](C)[C@H](NC(C)=O)C(=O)NCC(=O)N1CCC[C@H]1C(=O)N[C@@H](CCCNC(=N)N)C(=O)Nc1ccc2c(CC(N)=O)cc(=O)oc2c1) [SK7, reference compound]”, the kcat (GrA [2]; assay buffer pH 7.5) was 0.035 ± 0.00076 s⁻¹, the kcat/KM (GrA [2]; assay buffer pH 7.5) was 78 ± 6.60 s^–1 M^–1 and 78 ± 6.6 M^–1 s^–1 and the Km (GrA [2]; substrate 1000–7.81 μM, 50 mM Tris, 100 mM NaCl, 5 mM CaCl2, 0.01% Tween-20, pH 7.5, Michaelis–Menten nonlinear regression, duplicate) was 450 ± 1.3 µM.
For Ac-Met(O)-Gly-Hyp(Bzl)-3-Abz-ACC [SK13], the “hydrolysis by GrB (in words)” value (GrB [1]) was “significantly hydrolyzed”.
With “Cy5-Ahx-Tic-Gly-Oic-Arg^P(OPh)2 [SK15.5]” the kobs/I (GrA [3]) was 3521 ± 296 M^–1 s^–1, the “residual GrA activity after preinhibition (in words)” value (GrA [4]) was “completely blocked” and the “inhibition of GrK” value (GrK) was 3%. The “inhibition of GrB” value (GrB [5]) was “almost no inhibition effect”, the “inhibition of GrM” value (GrM) was “almost no inhibition effect” and the “inhibition of PR3” value (PR3) was “almost no inhibition effect”. The “inhibition of hNE” value (hNE) was “almost no inhibition effect”, the “probe labeling of GrA zymogen (in words)” value (GrA [6]) was “no signal was detected in the zymogen” and the “optimal probe concentration for GrA labeling (strong signal)” value (GrA [7]; 30 min, SDS-PAGE) was 500 nM. For the same substance, the “detection limit, minimum probe concentration needed for GrA labeling” value (GrA [7]; 30 min, SDS-PAGE, estimated) was “approximately 50 nM”, the “incubation time after which labeling no longer increases (maximal labeling)” value (GrA [7]; probe 250 nM) was 30 min and the “minimal incubation time after which probe-bound GrA is detected” value (GrA [7]; probe 250 nM) was 5 min. The “selectivity of labeling in NK92 cell lysates (in words)” value (GrA in NK92 cell lysates) was “did not observe any additional bands”.
In the case of L-Arg, the “relative GrA activity on P1 library substrate Ac-Ile-Ser-Pro-P1-ACC” value (shortened to “relative GrA activity”) (human GrA) is reported as 92%.
In the case of L-Asp, the “relative GrA activity” value (human GrA) is reported as 17.8%.
For L-Lys, the “relative GrA activity” value (human GrA) was 21%.

Source: article PMC7590976, “Detection of Active Granzyme A in NK92 Cells with Fluorescent Activity-Based Probe” (Journal of Medicinal Chemistry, 2020)
